Data: patent US9388140B2, “Substituted benzimidazoles” (priority 2011, dated 2016)

target: human kinase Mps-1 (Homo sapiens (Human), UniProt P33981); test: Mps-1 kinase assay (TR-FRET); format: biochemical; conditions: N-terminally GST-tagged human full length recombinant Mps-1; 10 μM ATP; 1 μM biotinylated peptide substrate; read-out: Mps1 IC50
Experimental: The human kinase Mps-1 phosphorylates a biotinylated substrate peptide. Detection of the phosphorylated product is achieved by time-resolved fluorescence resonance energy transfer (TR-FRET) from Europium-labelled anti-phospho-Serine/Threonine antibody as donor to streptavidin labelled with cross-linked allophycocyanin (SA-XLent) as acceptor. Compounds are tested for their inhibition of the kinase activity.
N-terminally GST-tagged human full length recombinant Mps-1 kinase (purchased from Invitrogen, Karslruhe, Germany, cat. no PV4071) was used. As substrate for the kinase reaction a biotinylated peptide of the amino-acid sequence […] (C-terminus in amide form, purchased from Biosynthan GmbH, Berlin) was used.
The concentration of Mps-1 in the assay was adjusted to the activity of the enzyme lot and was chosen appropriate to have the assay in the linear range, typical enzyme concentrations were in the range of about 1 nM (final conc. in the 5 μl assay volume).
The resulting mixture was incubated 1 h at 22° C. to allow the binding of the phosphorylated peptide to the anti-phospho(Ser/Thr)-Europium-antibody. Subsequently the amount of phosphorylated substrate was evaluated by measurement of the resonance energy transfer from the Europium-labelled anti-phospho(Ser/Thr) antibody to the Streptavidin-XLent.

Chain of human kinase Mps-1 (P33981 whole entry): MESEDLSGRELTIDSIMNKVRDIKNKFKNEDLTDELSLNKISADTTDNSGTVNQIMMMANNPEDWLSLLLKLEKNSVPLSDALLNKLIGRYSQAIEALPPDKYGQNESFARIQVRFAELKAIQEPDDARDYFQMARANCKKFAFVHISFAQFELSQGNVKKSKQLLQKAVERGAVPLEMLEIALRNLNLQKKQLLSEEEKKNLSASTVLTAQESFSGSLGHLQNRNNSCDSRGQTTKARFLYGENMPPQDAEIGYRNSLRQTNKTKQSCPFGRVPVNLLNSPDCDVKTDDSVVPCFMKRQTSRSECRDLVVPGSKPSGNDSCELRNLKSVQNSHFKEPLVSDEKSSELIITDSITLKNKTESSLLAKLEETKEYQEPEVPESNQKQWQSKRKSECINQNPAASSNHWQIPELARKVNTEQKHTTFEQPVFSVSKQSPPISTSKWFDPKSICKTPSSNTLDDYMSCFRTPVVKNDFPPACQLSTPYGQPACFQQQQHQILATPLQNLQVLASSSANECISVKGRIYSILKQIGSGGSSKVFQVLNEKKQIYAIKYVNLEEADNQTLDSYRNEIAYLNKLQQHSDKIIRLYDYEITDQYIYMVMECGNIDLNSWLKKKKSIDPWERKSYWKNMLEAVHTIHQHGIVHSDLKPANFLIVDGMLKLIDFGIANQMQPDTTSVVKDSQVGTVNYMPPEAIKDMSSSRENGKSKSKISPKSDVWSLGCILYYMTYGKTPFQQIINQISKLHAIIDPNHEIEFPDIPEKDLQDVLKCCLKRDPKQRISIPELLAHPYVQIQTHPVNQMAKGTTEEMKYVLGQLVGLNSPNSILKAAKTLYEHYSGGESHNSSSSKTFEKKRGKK

Row | Compound | IC50 [nM]
1 | COc1ccc(Oc2cc(NCC3CCOCC3)c3ncn(-c4ccc(C(=O)NC5CC5)c(C)c4)c3c2)cc1F [Example 44, N-cyclopropyl-4-{6-(3-fluoro-4-methoxyphenoxy)-4-[(tetrahydro-2H-pyran-4-ylmethyl)amino]-1H-benzimidazol-1-yl}-2-methylbenzamide] | 0.7
2 | Cc1cc(-n2cnc3c(NCCC(F)(F)F)cc(Oc4ccc(OCc5ccccc5)cc4)cc32)ccc1C(=O)NC1CC1 [Example 45, 4-{6-[4-(Benzyloxy)phenoxy]-4-[(3,3,3-trifluoropropyl)amino]-1H-benzimidazol-1-yl}-N-cyclopropyl-2-methylbenzamide] | 6.7
3 | CCNC(=O)c1ccc(-n2cnc3c(NCCC(F)(F)F)cc(Oc4ccc(OCc5ccccc5)cc4)cc32)cc1C [Example 46, 4-{6-[4-(Benzyloxy)phenoxy]-4-[(3,3,3-trifluoropropyl)amino]-1H-benzimidazol-1-yl}-N-ethyl-2-methylbenzamide] | 100
4 | CNC(=O)c1ccc(-n2cnc3c(NCCC(F)(F)F)cc(Oc4ccc(OCc5ccccc5)cc4)cc32)cc1C [Example 47, 4-{6-[4-(Benzyloxy)phenoxy]-4-[(3,3,3-trifluoropropyl)amino]-1H-benzimidazol-1-yl}-N,2-dimethylbenzamide] | 100
5 | CNC(=O)c1ccc(-n2cnc3c(NCCC(F)(F)F)cc(Oc4ccc(O)cc4)cc32)cc1C [Example 48, 4-{6-(4-Hydroxyphenoxy)-4-[(3,3,3-trifluoropropyl)amino]-1H-benzimidazol-1-yl}-N,2-dimethylbenzamide] | 5.6
6 | CCNC(=O)c1ccc(-n2cnc3c(NCCC(F)(F)F)cc(Oc4ccc(O)cc4)cc32)cc1C [Example 49, N-ethyl-4-{6-(4-hydroxyphenoxy)-4-[(3,3,3-trifluoropropyl)amino]-1H-benzimidazol-1-yl}-2-methylbenzamide] | 5.5
7 | Cc1cc(-n2cnc3c(NCCC(F)(F)F)cc(Oc4ccc(O)cc4)cc32)ccc1C(=O)NC1CC1 [Example 50, N-cyclopropyl-4-{6-(4-hydroxyphenoxy)-4-[(3,3,3-trifluoropropyl)amino]-1H-benzimidazol-1-yl}-2-methylbenzamide] | 1.1
8 | Cc1cc(-c2cc(NCCC(F)(F)F)c3ncn(-c4ccc(C(=O)NC5CC5)c(C)c4)c3c2)ccc1C(=O)NC1CC1 [Example 51, 4,4′-{4-[(3,3,3-Trifluoropropyl)amino]-1H-benzimidazole-1,6-diyl}bis(N-cyclopropyl-2-methylbenzamide)] | 0.9
9 | CNC(=O)c1ccc(-c2cc(NCCC(F)(F)F)c3ncn(-c4ccc(C(=O)NC5CC5)c(C)c4)c3c2)cc1C [Example 52, 4-{1-[4-(Cyclopropylcarbamoyl)-3-methylphenyl]-4-[(3,3,3-trifluoropropyl)amino]-1H-benzimidazol-6-yl}-N,2-dimethylbenzamide] | 0.9
10 | CCNC(=O)c1ccc(-c2cc(NCCC(F)(F)F)c3ncn(-c4ccc(C(=O)NC5CC5)c(C)c4)c3c2)cc1C [Example 53, 4-{1-[4-(Cyclopropylcarbamoyl)-3-methylphenyl]-4-[(3,3,3-trifluoropropyl)amino]-1H-benzimidazol-6-yl}-N-ethyl-2-methylbenzamide] | 1.9
11 | Cc1cc(-n2cnc3c(NCCC(F)(F)F)cc(Oc4ccccc4O)cc32)ccc1C(=O)NC1CC1 [Example 54, N-cyclopropyl-4-{6-(2-hydroxyphenoxy)-4-[(3,3,3-trifluoropropyl)amino]-1H-benzimidazol-1-yl}-2-methylbenzamide] | 0.2
12 | CCNC(=O)c1ccc(-n2cnc3c(NCCC(F)(F)F)cc(Oc4ccccc4O)cc32)cc1C [Example 55, N-ethyl-4-{6-(2-hydroxyphenoxy)-4-[(3,3,3-trifluoropropyl)amino]-1H-benzimidazol-1-yl}-2-methylbenzamide] | 0.7
13 | CNC(=O)c1ccc(-n2cnc3c(NCCC(F)(F)F)cc(Oc4ccccc4O)cc32)cc1C [Example 56, 4-{6-(2-hydroxyphenoxy)-4-[(3,3,3-trifluoropropyl)amino]-1H-benzimidazol-1-yl}-N,2-dimethylbenzamide] | 0.3
14 | COc1c(F)cccc1Oc1cc(NCCC(F)(F)F)c2ncn(-c3ccc(C(=O)NC4CC4)c(C)c3)c2c1 [Example 57, N-cyclopropyl-4-{6-(3-fluoro-2-methoxyphenoxy)-4-[(3,3,3-trifluoropropyl)amino]-1H-benzimidazol-1-yl}-2-methylbenzamide] | 6.8
15 | Cc1cc(-n2cnc3c(NCCC(F)(F)F)cc(Oc4cccc(OC(F)(F)F)c4)cc32)ccc1C(=O)NC1CC1 [Example 59, N-cyclopropyl-2-methyl-4-{6-[3-(trifluoromethoxy)phenoxy]-4-[(3,3,3-trifluoropropyl)amino]-1H-benzimidazol-1-yl}benzamide] | 11.9
16 | Cc1cc(-n2cnc3c(NCCC(F)(F)F)cc(Oc4ccc(N5CCOCC5)cc4)cc32)ccc1C(=O)NC1CC1 [Example 60, N-cyclopropyl-2-methyl-4-{6-[4-(morpholin-4-yl)phenoxy]-4-[(3,3,3-trifluoropropyl)amino]-1H-benzimidazol-1-yl}benzamide] | 11.5
17 | Cc1cc(-n2cnc3c(NCCC(F)(F)F)cc(Oc4ccc(OC(F)F)cc4)cc32)ccc1C(=O)NC1CC1 [Example 61, N-cyclopropyl-4-{6-[4-(difluoromethoxy)phenoxy]-4-[(3,3,3-trifluoropropyl)amino]-1H-benzimidazol-1-yl}-2-methylbenzamide] | 1.3
18 | Cc1cc(-n2cnc3c(NCCC(F)(F)F)cc(Oc4cccc(OC(F)F)c4)cc32)ccc1C(=O)NC1CC1 [Example 62, N-cyclopropyl-4-{6-[3-(difluoromethoxy)phenoxy]-4-[(3,3,3-trifluoropropyl)amino]-1H-benzimidazol-1-yl}-2-methylbenzamide] | 3.2
19 | COc1ccccc1Nc1cc(NCCC(F)(F)F)c2ncn(-c3ccc(C(=O)NC4CC4)c(C)c3)c2c1 [Example 63, N-cyclopropyl-4-{6-[(2-methoxyphenyl)amino]-4-[(3,3,3-trifluoropropyl)amino]-1H-benzimidazol-1-yl}-2-methylbenzamide] | 18.9
20 | Cc1cc(-n2cnc3c(NCCC(F)(F)F)cc(Oc4cccc(S(C)(=O)=O)c4)cc32)ccc1C(=O)NC1CC1 [Example 64, N-cyclopropyl-2-methyl-4-{6-[3-(methylsulfonyl)phenoxy]-4-[(3,3,3-trifluoropropyl)amino]-1H-benzimidazol-1-yl}benzamide] | 2.6
21 | COc1cccc(Nc2cc(NCCC(F)(F)F)c3ncn(-c4ccc(C(=O)NC5CC5)c(C)c4)c3c2)c1C [Example 65, N-cyclopropyl-4-{6-[(3-methoxy-2-methylphenyl)amino]-4-[(3,3,3-trifluoropropyl)amino]-1H-benzimidazol-1-yl}-2-methylbenzamide] | 2.8
22 | CCNC(=O)c1ccc(-n2cnc3c(NCCC(F)(F)F)cc(Oc4cccc(F)c4F)cc32)cc1C [Example 66, 4-{6-(2,3-difluorophenoxy)-4-[(3,3,3-trifluoropropyl)amino]-1H-benzimidazol-1-yl}-N-ethyl-2-methylbenzamide] | 2.1
23 | CNC(=O)c1ccc(-n2cnc3c(NCCC(F)(F)F)cc(Oc4cccc(F)c4F)cc32)cc1C [Example 67, 4-{6-(2,3-difluorophenoxy)-4-[(3,3,3-trifluoropropyl)amino]-1H-benzimidazol-1-yl}-N,2-dimethylbenzamide] | 1
